Measurements from patent publication US5514705A, “Epidioxymanadic acids A and B” (PharmaMar, S.A., priority 1994, dated 1996).
Converted amounts (≈) assume the structure as drawn.

Experiments:
Assay type in all cases: cell-based
[1] = tested on: P388 (leukemia); experiment: Cytotoxicity against P388 cell line in culture; settings: Mus musculus; P388 leukemia cells in culture
[2] = tested on: A549 (human lung carcinoma); experiment: Cytotoxicity against A549 cell line in culture; settings: A549 human lung carcinoma cells in culture
[3] = tested on: HT29 (human colon carcinoma); experiment: Cytotoxicity against HT29 cell line in culture; settings: HT-29; HT29 human colon carcinoma cells in culture
[4] = tested on: MEL-28 (human melanoma); experiment: Cytotoxicity against MEL-28 cell line in culture; settings: SK-MEL-28; MEL-28 human melanoma cells in culture

With `C/C=C(C)/C=C/CCC[C@@]1(OC)C[C@H](C)[C@H](CC(=O)O)OO1` [Epidioxymanadic A, epidioxymanadic acid A] the IC50 [1] was 0.5 µg/mL (≈ 1.6 µM), the IC50 [2] was 1 µg/mL (≈ 3.2 µM) and the IC50 [3] was 2 µg/mL (≈ 6.4 µM). It also gave an IC50 [4] of 5 µg/mL (≈ 16 µM).

With `CC/C=C(C)/C=C/CCC[C@@]1(OC)C[C@H](C)[C@H](CC(=O)O)OO1` [Epidioxymanadic B, epidioxymanadic acid B] the IC50 [1] was 0.5 µg/mL (≈ 1.53 µM), the IC50 [2] was 1 µg/mL (≈ 3.06 µM) and the IC50 [3] was 2 µg/mL (≈ 6.13 µM). For the same compound, the IC50 [4] was 2.5 µg/mL (≈ 7.66 µM).
